Measurements: ChEMBL document CHEMBL1140217, “Prolyl oligopeptidase inhibition by N-acyl-pro-pyrrolidine-type molecules” (J Med Chem, 2008)
pIC50: −log10 of the molar value.

Biological target: T1, Prolyl endopeptidase (Rattus norvegicus, UniProt O70196)
T1 sequence (O70196 whole entry): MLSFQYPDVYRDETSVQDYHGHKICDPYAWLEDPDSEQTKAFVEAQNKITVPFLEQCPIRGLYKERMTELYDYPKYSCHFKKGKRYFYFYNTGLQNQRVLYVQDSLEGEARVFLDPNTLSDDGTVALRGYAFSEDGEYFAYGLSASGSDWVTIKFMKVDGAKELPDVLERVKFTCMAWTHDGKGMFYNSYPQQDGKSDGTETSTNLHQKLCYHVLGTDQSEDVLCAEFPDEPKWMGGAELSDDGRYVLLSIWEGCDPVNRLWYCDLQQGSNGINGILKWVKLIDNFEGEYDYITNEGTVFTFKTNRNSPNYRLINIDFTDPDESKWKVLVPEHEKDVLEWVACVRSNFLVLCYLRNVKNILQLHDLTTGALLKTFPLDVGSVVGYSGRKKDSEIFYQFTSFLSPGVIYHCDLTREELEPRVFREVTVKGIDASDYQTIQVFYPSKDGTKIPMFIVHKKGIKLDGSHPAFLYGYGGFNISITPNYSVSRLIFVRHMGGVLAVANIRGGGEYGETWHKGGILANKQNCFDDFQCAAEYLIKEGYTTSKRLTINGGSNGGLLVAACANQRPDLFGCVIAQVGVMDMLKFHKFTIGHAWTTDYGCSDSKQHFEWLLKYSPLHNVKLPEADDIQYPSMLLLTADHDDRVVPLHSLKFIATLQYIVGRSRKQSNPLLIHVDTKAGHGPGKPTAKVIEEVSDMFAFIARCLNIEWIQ
Test: Inhibition of POP in Sprague-Dawley rat brain homogenates
Assay type: tissue-based

Structure (SMILES)	pIC50
O=C([C@@H]1CCCN1C(=O)CCCn1c(=O)c(-c2ccccc2)nc2ccccc21)N1CCCC1	7.23
CCCCCCCC(=O)N1CCC[C@H]1C(=O)N1CCCC1	7.32
O=C([C@@H]1CCCN1C(=O)CCCN1C(=O)c2ccccc2C1=O)N1CCCC1	7.40
O=C([C@@H]1CCCN1C(=O)CCN1C(=O)c2ccccc2C1=O)N1CCCC1	8.52
